Experimental data from patent US20250171437A1 (Agios Pharmaceuticals,Inc., priority 2022, published 2025).

What follows are compounds tested against T1, human PAH with the R408W mutation (A375 R408W cells) (Homo sapiens, UniProt P00439, R408W) (assay: Cell Based Phenylalanine Flux Assay). Conditions: A375 R408W cells; 24 hrs with compound, then 20 μM sepiapterin and 800 μM 13C9,15N-Phenylalanine for 4 hours; 13C-Tyrosine by LC-MS; average where tested multiple times.
T1 construct: expressed in transfected cells
T1 sequence (P00439 1-452 R408W): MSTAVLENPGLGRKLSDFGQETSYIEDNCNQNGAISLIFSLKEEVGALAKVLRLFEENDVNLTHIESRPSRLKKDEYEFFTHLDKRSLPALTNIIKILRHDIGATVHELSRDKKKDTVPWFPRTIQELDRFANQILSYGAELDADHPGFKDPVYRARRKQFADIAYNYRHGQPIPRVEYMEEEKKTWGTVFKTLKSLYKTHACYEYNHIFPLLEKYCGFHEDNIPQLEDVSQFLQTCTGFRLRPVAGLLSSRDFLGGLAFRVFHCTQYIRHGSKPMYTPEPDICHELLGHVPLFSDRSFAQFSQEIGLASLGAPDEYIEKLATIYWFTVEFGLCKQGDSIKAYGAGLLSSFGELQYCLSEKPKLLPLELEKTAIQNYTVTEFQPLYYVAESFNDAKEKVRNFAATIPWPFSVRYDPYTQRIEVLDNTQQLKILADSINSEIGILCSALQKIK
Description: Cells expressing R408W PAH were made by transducing A375 cells with lentivirus encoding human PAH with the R408W mutation in pLVX-Puro, then selecting with puromycin until stable cell lines were generated. A375 R408W cells were seeded into 96 well plates in DMEM+10% FBS at a density of 40,000 cells/well one hour prior to compound addition. Compounds were resuspended in DMSO, and 2-fold serial dilutions were performed to generate a 10-point dose curve. Compounds were added to plated cells in a total volume of 100 μl, and a final DMSO concentration of 0.5%. Each compound was tested in duplicate. Following compound addition, cells were placed in a 5% CO2, 37° C. tissue culture incubator for 24 hrs. After the incubation period, 20 μM sepiapterin and 800 μM 13C9,15N-Phenylalanine were added. After 4 hours, cell media was removed. An aliquot of 10 μl of cell media was combined with 200 μl of extraction buffer (80% acetonitrile/20% H2O) for each well. Determination of ^13C-Tyrosine concentration was assessed by liquid chromatography mass spectrometry.
Specific compounds disclosed herein were tested in the foregoing assay and they were determined to have an AC50 according to the following scores: (A) less than or equal to 0.500 μM, (B) greater than 0.500 and less than […], (C) greater than or equal to 1.000 and less than 5.000 μM, (D) greater than or equal to 5.000 μM, (E) no fit, and (NT) not tested, as shown below. Where a compound was tested multiple times, the average value of the tests is reported.

First: COc1ccc2oc([C@@H]3c4nc[nH]c4CCN3C(=O)c3nc(C(F)F)nn3C)nc2c1 [Example 549, (S)-(3-(difluoromethyl)-1-methyl-1H-1,2,4-triazol-5-yl)(4-(5-methoxybenzo[d]oxazol-2-yl)-6,7-dihydro-1H-imidazo[4,5-c]pyridin-5(4H)-yl)methanone]
Second: COc1ccc2oc([C@H]3c4nc[nH]c4CCN3C(=O)c3nc(C(F)F)nn3C)nc2c1 [Example 550, (R)-(3-(difluoromethyl)-1-methyl-1H-1,2,4-triazol-5-yl)(4-(5-methoxybenzo[d]oxazol-2-yl)-6,7-dihydro-1H-imidazo[4,5-c]pyridin-5(4H)-yl)methanone]
The AC50 of the first is lower: 500 to 1000 nM for the first, 1000 to 5000 nM for the second.

First: O=C(c1cnn2cc(N3CCC(O)CC3)ccc12)N1CCc2[nH]cnc2[C@H]1c1nc2cc(F)cc(F)c2o1 [Example 699, (S)-(4-(5,7-difluorobenzo[d]oxazol-2-yl)-6,7-dihydro-1H-imidazo[4,5-c]pyridin-5(4H)-yl)(6-(4-hydroxypiperidin-1-yl)pyrazolo[1,5-a]pyridin-3-yl)methanone]
Second: O=C(c1oc(N2CCC(F)CC2)nc1C(F)F)N1CCc2[nH]cnc2[C@H]1c1nc2cccc(F)c2o1 [Example 676, (S)-(4-(difluoromethyl)-2-(4-fluoropiperidin-1-yl)oxazol-5-yl)(4-(7-fluorobenzo[d]oxazol-2-yl)-6,7-dihydro-1H-imidazo[4,5-c]pyridin-5(4H)-yl)methanone]
The AC50 of the first is higher: 1000 to 5000 nM for the first, no more than 500 nM for the second.

COc1ccc(-c2nc(C(F)F)c(C(=O)N3CCc4[nH]cnc4[C@H]3c3nc4cc(F)ccc4o3)o2)nc1 [Example 445, (S)-(4-(difluoromethyl)-2-(5-methoxypyridin-2-yl)oxazol-5-yl)(4-(5-fluorobenzo[d]oxazol-2-yl)-6,7-dihydro-1H-imidazo[4,5-c]pyridin-5(4H)-yl)methanone] and O=C(c1oc(-c2ccncn2)nc1C(F)F)N1CCc2[nH]cnc2[C@H]1c1nc2cccc(F)c2o1 [Example 773, (S)-(4-(difluoromethyl)-2-(pyrimidin-4-yl)oxazol-5-yl)(4-(7-fluorobenzo[d]oxazol-2-yl)-6,7-dihydro-1H-imidazo[4,5-c]pyridin-5(4H)-yl)methanone] cannot be ordered by AC50: no more than 500 nM for the first, no more than 500 nM for the second.

Cn1cc(-c2nnc(C(=O)N3CCc4[nH]cnc4[C@H]3c3nc4cc(F)ccc4o3)o2)c(C(F)(F)F)n1 [Example 118, (S)-(4-(5-fluorobenzo[d]oxazol-2-yl)-6,7-dihydro-1H-imidazo[4,5-c]pyridin-5(4H)-yl)(5-(1-methyl-3-(trifluoromethyl)-1H-pyrazol-4-yl)-1,3,4-oxadiazol-2-yl)methanone] and O=C(c1c(C(F)(F)F)nn2ccccc12)N1CCc2[nH]cnc2[C@H]1c1nc2cc(F)ccc2o1 [Example 915, (S)-(4-(5-fluorobenzo[d]oxazol-2-yl)-6,7-dihydro-1H-imidazo[4,5-c]pyridin-5(4H)-yl)(2-(trifluoromethyl)pyrazolo[1,5-a]pyridin-3-yl)methanone] cannot be ordered by AC50: no more than 500 nM for the first, no more than 500 nM for the second.

Going from O=C(c1cccnc1)N1Cc2[nH]cnc2[C@H]1c1nc2ccccc2o1 [Example 927, (S)-(4-(benzo[d]oxazol-2-yl)-4,6-dihydropyrrolo[3,4-d]imidazol-5(1H)-yl)(pyridin-3-yl)methanone] to O=C(c1nnc(-c2ccccn2)o1)N1CCc2[nH]cnc2[C@H]1c1nc2ccccc2o1 [Example 583, (S)-(4-(benzo[d]oxazol-2-yl)-6,7-dihydro-1H-imidazo[4,5-c]pyridin-5(4H)-yl)(5-(pyridin-2-yl)-1,3,4-oxadiazol-2-yl)methanone], the AC50 falls from no less than 5000 nM to no more than 500 nM.

Cn1cc(-c2nnc(C(=O)N3CCc4[nH]cnc4[C@@H]3c3nc4cccc(F)c4o3)o2)cn1 [Example 192, (R)-(4-(7-fluorobenzo[d]oxazol-2-yl)-6,7-dihydro-1H-imidazo[4,5-c]pyridin-5(4H)-yl)(5-(1-methyl-1H-pyrazol-4-yl)-1,3,4-oxadiazol-2-yl)methanone] and Cn1cc(-c2nnc(C(=O)N3CCc4[nH]cnc4[C@@H]3c3nc4c(F)ccc(F)c4o3)o2)cn1 [Example 517, (R)-(4-(4,7-difluorobenzo[d]oxazol-2-yl)-6,7-dihydro-1H-imidazo[4,5-c]pyridin-5(4H)-yl)(5-(1-methyl-1H-pyrazol-4-yl)-1,3,4-oxadiazol-2-yl)methanone] fall in the same range of AC50: 1000 to 5000 nM for the first, 1000 to 5000 nM for the second.

First: Cn1nc(Br)nc1C(=O)N1CCc2[nH]cnc2[C@H]1c1nc2cccc(F)c2o1 [Example 473, (S)-(3-bromo-1-methyl-1H-1,2,4-triazol-5-yl)(4-(7-fluorobenzo[d]oxazol-2-yl)-6,7-dihydro-1H-imidazo[4,5-c]pyridin-5(4H)-yl)methanone]
Second: CC(C)(O)c1nc(C(F)F)c(C(=O)N2CCc3[nH]cnc3[C@@H]2c2nc3cccc(C(F)(F)F)c3o2)o1 [Example 454, (R)-(4-(difluoromethyl)-2-(2-hydroxypropan-2-yl)oxazol-5-yl)(4-(7-(trifluoromethyl)benzo[d]oxazol-2-yl)-6,7-dihydro-1H-imidazo[4,5-c]pyridin-5(4H)-yl)methanone]
The AC50 of the first is lower: 500 to 1000 nM for the first, 1000 to 5000 nM for the second.

O=C(c1ocnc1C(F)F)N1CCc2[nH]cnc2[C@H]1c1nc2c(Br)cccc2o1 [Example 433, (S)-(4-(4-bromobenzo[d]oxazol-2-yl)-6,7-dihydro-1H-imidazo[4,5-c]pyridin-5(4H)-yl)(4-(difluoromethyl)oxazol-5-yl)methanone] and O=C(c1ocnc1C(F)F)N1CCc2[nH]cnc2[C@H]1c1nc2cc(OC(F)(F)F)ccc2o1 [Example 354, (S)-(4-(difluoromethyl)oxazol-5-yl)(4-(5-(trifluoromethoxy)benzo[d]oxazol-2-yl)-6,7-dihydro-1H-imidazo[4,5-c]pyridin-5(4H)-yl)methanone] cannot be ordered by AC50: no more than 500 nM for the first, no more than 500 nM for the second.

CC(C)(O)c1nc(C(F)(F)F)c(C(=O)N2CCc3[nH]cnc3[C@@H]2c2nc3c(F)cccc3o2)o1 [Example 258, (R)-(4-(4-fluorobenzo[d]oxazol-2-yl)-6,7-dihydro-1H-imidazo[4,5-c]pyridin-5(4H)-yl)(2-(2-hydroxypropan-2-yl)-4-(trifluoromethyl)oxazol-5-yl)methanone] and CC(C)(O)c1nc(C(F)F)c(C(=O)N2CCc3[nH]cnc3[C@@H]2c2nc3ccc(F)c(F)c3o2)o1 [Example 298, (R)-(4-(6,7-difluorobenzo[d]oxazol-2-yl)-6,7-dihydro-1H-imidazo[4,5-c]pyridin-5(4H)-yl)(4-(difluoromethyl)-2-(2-hydroxypropan-2-yl)oxazol-5-yl)methanone] fall in the same range of AC50: 1000 to 5000 nM for the first, 1000 to 5000 nM for the second.

Same assay, conditions: A375 cells expressing R408W PAH; 24 hrs with compound, then 20 μM sepiapterin and 800 μM 13C9,15N-Phenylalanine for 4 hours; 13C-Tyrosine by LC-MS; average where tested multiple times

CN(C)Cc1nnc(C(=O)N2CCc3[nH]cnc3C2c2nc3cc(F)ccc3o2)o1 (centres unmarked) and O=C(c1nnc(CCN2CC(F)C2)o1)N1CCc2[nH]cnc2C1c1nc2cc(F)ccc2o1 (centres unmarked) cannot be ordered by AC50: 1000 to 5000 nM for the first, no less than 5000 nM for the second.

Cc1ccc2nc(C3c4nc[nH]c4CCN3C(=O)c3cnn4cc(CN(C)C)ccc34)oc2c1 (centres unmarked) and O=C(c1cnn2cc(OCCn3cccn3)ccc12)N1CCc2[nH]cnc2[C@H]1c1nc2cc(F)ccc2o1 (single isomer, unassigned) cannot be ordered by AC50: no less than 5000 nM for the first, 1000 to 5000 nM for the second.

Cn1nc(C(C)(C)C)nc1C(=O)N1CCc2[nH]cnc2C1c1nc2ccccc2o1 (centres unmarked) and COC(C)(C)c1nc(C)c(C(=O)N2CCc3[nH]cnc3C2c2nc3cc(F)ccc3o2)o1 (centres unmarked) cannot be ordered by AC50: no less than 5000 nM for the first, no less than 5000 nM for the second.

O=C(c1cnco1)N1CCc2[nH]cnc2C1c1nc2ccc(F)cc2o1 (centres unmarked) and Cn1cncc1-c1nnc(C(=O)N2CCc3[nH]cnc3C2c2nc3cc(F)ccc3o2)o1 (centres unmarked) cannot be ordered by AC50: no less than 5000 nM for the first, no less than 5000 nM for the second.
